Broadly, the inhibition is the drop in the measured response relative to a control, in per cent. In general, Vd refers to the apparent volume that relates the amount in the body to the concentration in plasma or blood. What is called AUC(0-inf) is total exposure, with the tail of the curve extrapolated. For orientation: Kp means tissue or fluid exposure divided by exposure in the circulation. The term Cmax denotes the maximum level reached in the sampled fluid or tissue. By Tmax is commonly meant the time at which the peak concentration occurs. The EC50 is the concentration that produces a half-maximal response.

SMILES strings stand for the structures. “And” between values parts separate entries of the source, which are not always exact repeats. Identical values can stand only once. “Also recorded” adds a separate entry of the source. Like-named read-outs stand apart in the source and are kept apart here.

Experimental findings from patent US20230399324A1, “AGENTS FOR TREATING DISORDERS INVOLVING RYANODINE RECEPTORS” (ARMGO Pharma, Inc., priority 2020, published 2023) are described below.

For data set [1], the system named is cardiomyocytes isolated from mouse heart. Put plainly: Inhibition of unstimulated calcium release events in cardiomyocytes (isoproterenol-induced). Conditions: Cardiomyocyte, 10 μM compound, isoproterenol 1 uM, percent inhibition of controls B vs A. It counts as cell-based, C57BL/6 mice. The procedure: Compounds of the disclosure were evaluated for an effect on isoproterenol-induced inhibition of unstimulated calcium release events in cardiomyocytes isolated from mouse heart.
Adult cardiomyocytes are isolated from female, 28-32 grams C57BL/6 mice using a perfusion solution containing Liberase TH (Sigma Aldrich, #05-401-151001). After isolation, Ca^2+ is reintroduced in 5 steps at 4 min intervals. Then cells are plating (Time Cero) with a density of 5000-7000 rod cells in 100 μl of Cardiomyocyte Culture Medium (MEM, Invitrogen, #11575-032) containing Blebbistatin and compound treatment at various concentrations (0.01 to 10 uM). After 1 hrs of compound treatment cells are treated with Isoproterenol (1 uM). After 2 hrs of compound treatment cells are loaded with a Ca^2+ indicator (Fluo-4-AM, Invitrogen #F14202). After 3 hrs of compound treatment MEM is quickly but gently removed and the cells re-suspended in recording solution (Ca^2+ 2 mM, Isoproterenol 1 uM) for field stimulations using custom-designed electrodes. Cells are stimulated for 20 seconds at 0.5 Hz, then for 5 seconds at 5 Hz.
One Study=3 experiments. One experiment=1 mouse. Each experiment has 3 controls in triplicate: • A) Ca^2+ • B) Ca^2++Isoproterenol • C) Ca^2++Isoproterenol+Control Compound.
The first step in the analysis is to determine the number of responders based on four conditions. Responders are then analyzed to determine the number of unstimulated calcium release events, which are peaks of sufficient intensity, measured in the post-5 Hz stimulation period. Effect of test compounds (Ca^2++Isoproterenol+Test Compound in triplicate) are expressed as a percent inhibition of the controls B vs A.
All compounds were tested at 10 μM.

In data set [2] the target is T1, RyR2 (Homo sapiens, UniProt Q92736). Put plainly: 35S-labelled Calstabin2 binding to human HD cortex microsomes, dose curve. The note with it: FIG. 2.
Target sequence in this assay (Q92736 whole entry): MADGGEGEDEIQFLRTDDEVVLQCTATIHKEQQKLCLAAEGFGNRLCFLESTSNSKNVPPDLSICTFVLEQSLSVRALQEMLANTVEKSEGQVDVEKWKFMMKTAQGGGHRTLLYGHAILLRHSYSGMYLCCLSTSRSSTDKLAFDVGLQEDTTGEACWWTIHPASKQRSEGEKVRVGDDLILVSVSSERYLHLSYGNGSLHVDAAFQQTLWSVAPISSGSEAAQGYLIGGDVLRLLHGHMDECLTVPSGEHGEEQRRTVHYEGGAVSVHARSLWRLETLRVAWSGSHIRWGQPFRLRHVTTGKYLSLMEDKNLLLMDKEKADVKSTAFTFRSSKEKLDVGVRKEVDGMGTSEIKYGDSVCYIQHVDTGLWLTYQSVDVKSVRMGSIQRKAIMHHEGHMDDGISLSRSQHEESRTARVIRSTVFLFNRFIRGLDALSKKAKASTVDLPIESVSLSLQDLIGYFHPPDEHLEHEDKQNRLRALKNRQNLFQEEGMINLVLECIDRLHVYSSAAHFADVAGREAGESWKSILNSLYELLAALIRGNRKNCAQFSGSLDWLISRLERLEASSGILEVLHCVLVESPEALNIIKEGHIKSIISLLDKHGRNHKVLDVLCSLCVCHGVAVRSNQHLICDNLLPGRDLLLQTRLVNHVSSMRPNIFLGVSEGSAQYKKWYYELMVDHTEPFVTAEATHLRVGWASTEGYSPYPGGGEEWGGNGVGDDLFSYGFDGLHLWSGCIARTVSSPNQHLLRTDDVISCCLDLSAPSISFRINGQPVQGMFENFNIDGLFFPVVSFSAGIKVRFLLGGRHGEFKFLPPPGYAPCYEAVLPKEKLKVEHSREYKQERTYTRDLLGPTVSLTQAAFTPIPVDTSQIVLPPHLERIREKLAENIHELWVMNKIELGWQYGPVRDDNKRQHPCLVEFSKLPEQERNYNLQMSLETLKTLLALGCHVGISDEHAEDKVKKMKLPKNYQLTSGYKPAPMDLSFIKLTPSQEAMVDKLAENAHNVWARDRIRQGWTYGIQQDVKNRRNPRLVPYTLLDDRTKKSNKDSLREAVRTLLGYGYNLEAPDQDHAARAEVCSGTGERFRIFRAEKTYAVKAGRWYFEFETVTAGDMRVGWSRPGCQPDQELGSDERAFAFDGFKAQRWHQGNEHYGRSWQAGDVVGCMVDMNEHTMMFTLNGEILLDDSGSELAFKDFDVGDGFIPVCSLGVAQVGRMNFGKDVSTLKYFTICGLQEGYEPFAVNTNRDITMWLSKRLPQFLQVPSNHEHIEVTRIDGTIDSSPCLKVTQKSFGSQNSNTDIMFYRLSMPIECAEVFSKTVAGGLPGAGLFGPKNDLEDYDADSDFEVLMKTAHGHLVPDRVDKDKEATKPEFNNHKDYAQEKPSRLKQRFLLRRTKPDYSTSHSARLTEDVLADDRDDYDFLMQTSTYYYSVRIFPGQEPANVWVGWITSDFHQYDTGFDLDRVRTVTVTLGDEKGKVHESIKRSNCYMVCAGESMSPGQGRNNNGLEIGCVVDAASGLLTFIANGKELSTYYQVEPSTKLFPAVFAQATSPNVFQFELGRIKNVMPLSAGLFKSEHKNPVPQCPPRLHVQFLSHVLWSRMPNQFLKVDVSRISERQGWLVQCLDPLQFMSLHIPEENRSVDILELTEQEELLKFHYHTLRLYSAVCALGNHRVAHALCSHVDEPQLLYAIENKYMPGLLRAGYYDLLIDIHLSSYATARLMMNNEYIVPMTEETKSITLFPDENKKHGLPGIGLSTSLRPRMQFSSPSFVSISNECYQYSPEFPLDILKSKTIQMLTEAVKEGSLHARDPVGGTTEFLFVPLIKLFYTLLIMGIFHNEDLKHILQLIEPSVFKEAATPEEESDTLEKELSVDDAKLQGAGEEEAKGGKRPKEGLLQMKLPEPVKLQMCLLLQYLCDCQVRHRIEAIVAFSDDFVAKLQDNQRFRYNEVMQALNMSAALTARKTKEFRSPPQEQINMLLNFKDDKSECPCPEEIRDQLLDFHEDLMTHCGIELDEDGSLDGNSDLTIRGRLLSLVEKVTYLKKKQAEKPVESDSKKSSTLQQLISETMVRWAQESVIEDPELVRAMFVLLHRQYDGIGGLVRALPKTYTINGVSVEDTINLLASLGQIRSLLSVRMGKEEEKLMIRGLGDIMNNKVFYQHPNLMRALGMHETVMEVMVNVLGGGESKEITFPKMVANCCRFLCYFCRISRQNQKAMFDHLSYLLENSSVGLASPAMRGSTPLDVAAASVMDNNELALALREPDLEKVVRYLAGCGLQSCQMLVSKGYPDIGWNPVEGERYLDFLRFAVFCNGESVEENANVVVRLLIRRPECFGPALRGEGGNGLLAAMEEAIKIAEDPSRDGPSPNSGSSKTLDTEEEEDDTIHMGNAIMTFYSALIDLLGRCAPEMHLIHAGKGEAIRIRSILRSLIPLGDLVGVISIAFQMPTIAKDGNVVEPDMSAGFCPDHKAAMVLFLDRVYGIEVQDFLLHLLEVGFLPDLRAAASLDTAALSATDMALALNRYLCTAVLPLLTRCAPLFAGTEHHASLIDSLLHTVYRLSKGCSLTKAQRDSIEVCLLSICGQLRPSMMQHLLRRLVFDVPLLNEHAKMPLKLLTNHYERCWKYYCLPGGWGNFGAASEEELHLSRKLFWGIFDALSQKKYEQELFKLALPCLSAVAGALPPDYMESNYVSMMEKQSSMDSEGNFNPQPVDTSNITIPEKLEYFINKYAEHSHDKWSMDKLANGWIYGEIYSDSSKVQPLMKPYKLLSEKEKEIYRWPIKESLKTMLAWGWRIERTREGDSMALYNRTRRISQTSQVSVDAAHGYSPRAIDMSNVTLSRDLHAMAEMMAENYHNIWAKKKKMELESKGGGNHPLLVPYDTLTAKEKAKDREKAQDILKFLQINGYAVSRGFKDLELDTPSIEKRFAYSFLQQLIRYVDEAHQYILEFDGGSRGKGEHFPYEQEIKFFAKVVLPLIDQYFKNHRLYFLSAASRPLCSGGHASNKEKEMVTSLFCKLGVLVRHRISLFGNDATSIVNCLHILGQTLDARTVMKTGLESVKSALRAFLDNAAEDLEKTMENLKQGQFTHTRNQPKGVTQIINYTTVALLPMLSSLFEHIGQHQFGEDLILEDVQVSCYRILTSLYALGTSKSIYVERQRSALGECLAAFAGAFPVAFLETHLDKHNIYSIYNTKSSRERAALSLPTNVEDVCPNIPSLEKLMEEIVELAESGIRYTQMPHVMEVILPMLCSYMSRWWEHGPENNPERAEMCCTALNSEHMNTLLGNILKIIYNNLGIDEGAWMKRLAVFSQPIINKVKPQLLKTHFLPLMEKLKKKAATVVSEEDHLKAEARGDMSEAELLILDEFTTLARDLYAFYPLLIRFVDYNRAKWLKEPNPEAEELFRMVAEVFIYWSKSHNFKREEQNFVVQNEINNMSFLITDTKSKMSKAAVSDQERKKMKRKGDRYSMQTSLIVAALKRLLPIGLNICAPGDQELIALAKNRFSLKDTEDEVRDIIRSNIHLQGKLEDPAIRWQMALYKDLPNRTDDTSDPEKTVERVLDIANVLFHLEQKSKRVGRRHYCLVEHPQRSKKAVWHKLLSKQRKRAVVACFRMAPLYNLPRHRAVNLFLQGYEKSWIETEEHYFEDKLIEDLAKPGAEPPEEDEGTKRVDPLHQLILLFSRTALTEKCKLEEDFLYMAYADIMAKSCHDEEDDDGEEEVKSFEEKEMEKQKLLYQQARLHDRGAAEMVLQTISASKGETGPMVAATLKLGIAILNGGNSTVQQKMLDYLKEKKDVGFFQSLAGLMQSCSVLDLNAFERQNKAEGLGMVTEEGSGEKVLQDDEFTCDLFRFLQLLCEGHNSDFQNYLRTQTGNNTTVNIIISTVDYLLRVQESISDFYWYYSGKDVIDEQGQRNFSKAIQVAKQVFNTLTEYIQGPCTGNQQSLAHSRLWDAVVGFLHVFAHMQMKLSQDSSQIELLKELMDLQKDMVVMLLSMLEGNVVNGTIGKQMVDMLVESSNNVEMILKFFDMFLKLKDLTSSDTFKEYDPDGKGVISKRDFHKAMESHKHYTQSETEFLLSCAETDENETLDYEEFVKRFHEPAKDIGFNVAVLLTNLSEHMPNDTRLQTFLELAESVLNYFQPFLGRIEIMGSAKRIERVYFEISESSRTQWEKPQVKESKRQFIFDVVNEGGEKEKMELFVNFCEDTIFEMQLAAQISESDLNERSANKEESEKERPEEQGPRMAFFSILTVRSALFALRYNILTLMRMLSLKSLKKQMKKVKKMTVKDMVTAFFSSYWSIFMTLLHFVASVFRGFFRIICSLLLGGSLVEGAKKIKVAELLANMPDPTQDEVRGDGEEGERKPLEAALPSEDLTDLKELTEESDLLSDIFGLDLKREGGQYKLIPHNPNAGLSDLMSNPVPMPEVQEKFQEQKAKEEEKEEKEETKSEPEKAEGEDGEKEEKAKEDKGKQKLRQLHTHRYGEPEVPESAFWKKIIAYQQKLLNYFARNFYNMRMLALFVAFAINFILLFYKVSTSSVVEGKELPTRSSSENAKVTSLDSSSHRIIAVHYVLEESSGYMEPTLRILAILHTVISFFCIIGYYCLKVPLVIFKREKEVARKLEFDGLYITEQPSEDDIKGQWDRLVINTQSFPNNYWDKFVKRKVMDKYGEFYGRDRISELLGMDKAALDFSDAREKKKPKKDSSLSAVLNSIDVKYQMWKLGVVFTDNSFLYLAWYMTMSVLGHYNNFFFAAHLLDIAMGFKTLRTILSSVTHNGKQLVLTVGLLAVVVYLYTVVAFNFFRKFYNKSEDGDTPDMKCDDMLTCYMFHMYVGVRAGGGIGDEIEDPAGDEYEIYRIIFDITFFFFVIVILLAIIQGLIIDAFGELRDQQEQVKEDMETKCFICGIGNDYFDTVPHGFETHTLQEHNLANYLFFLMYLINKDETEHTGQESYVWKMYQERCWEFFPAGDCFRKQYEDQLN
Target sequence in this assay (P68106 whole entry, further chain): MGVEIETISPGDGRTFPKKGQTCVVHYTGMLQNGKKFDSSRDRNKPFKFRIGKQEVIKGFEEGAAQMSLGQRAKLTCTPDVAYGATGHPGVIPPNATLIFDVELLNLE
Data set [3] in a line: Pharmacokinetics by intravenous (IV) dosing (tail vein). It is filed as in vivo, rat. How it is done: Additional PK parameters were obtained using IV dosing to complement the oral PK data and to determine absolute oral bioavailability. Compounds were administered via tail vein injection and blood samples were obtained at 30 min, 1 h, 4 h and 12h. The drug concentration in plasma was determined via UPLC/MS.
(§1) The concentration results were used to estimate PK parameters (i.e. C0, T1/2, Vd, AUCinf) based on noncompartmental distribution and mono-exponential concentration decay. The half-life value thus obtained was also used to estimate the AUCinf for the PO dosing.

Data set [4] can be described thus: Brain exposure: brain and plasma concentrations 4 h after oral administration. It is filed as in vivo. Conditions: Sprague-Dawley, rat, PO 20 mg/kg; for concentration at 4 h: terminal sampling. How it is done:
(§2) Analytical instrument: Waters Acquity Class H UPLC equipped with Waters SQ3100 mass detector.
Brain and plasma concentrations 4 h after oral administration (corresponding to Tmax in the first experiment) were determined via UPLC/MS, and the corresponding brain-to-plasma ratio values were calculated.

The nature of data set [5]: Oral bioavailability and pharmacokinetics in blood plasma after oral gavage. Conditions: Sprague-Dawley; for Cmax: po. It counts as in vivo, Sprague-Dawley rats. The procedure:
as §2
1). Initial non-terminal assessment of compound oral bioavailability and pharmacokinetics in blood plasma.
Sprague-Dawley rats were dosed via oral gavage (20 mg/kg); blood samples were drawn at 30 min, 1 h, 4 h and 12 h and plasma concentrations were determined via UPLC/MS. The 12-hour exposure (AUC12, Table 2) was determined via trapezoidal integration of the observed concentrations.
as §1

Data set [6] can be described thus: Morning and evening plasma and brain exposure after 1-week dosing in drinking water. Conditions: rat; for Brain / Plasma: 1 week. It is filed as in vivo.
For another data set, the system named is RyR. Put plainly: RyR mediated calcium leak from human HD cortex microsomes (Fluo-4, thapsigargin). It is filed as biochemical. Conditions: thapsigargin 3 μM, FIG. 3. The procedure:
Human cortex Microsomes (5 μg/ml) were diluted into a 20 mM HEPES buffer (pH 7.2) containing 7 mM NaCl, 1.5 mM MgCl2, 120 mM K-gluconate, 5 mM K-phosphate, 8 mM K-phosphocreatine, 1 μM EGTA and 2 μM CaCl2) mixed with 3 μM Fluo-4 and added to multiple wells of a 96-well plate. Calcium (Ca^2+) loading of the microsomes was initiated by adding 1 mM ATP. After Ca^2+ uptake, 3 μM thapsigargin was added. (A)—Representative traces of Ca^2+ leak from Human cortex microsomes induced by addition of thapsigargin (3 μM). (B)—Ca^2+ leak was calculated as the percent increase in signal after addition of thapsigargin. Data (mean±SEM) analysis was performed by Student t-test (n=2 for each group) **P<0.01.

Data set [7] deals with T1, RyR2. The data set can be described thus: biochemical.
Target sequence in this assay (Q92736 whole entry): as the sequence (Q92736 whole entry) above
Target sequence in this assay (P68106 whole entry, further chain): as the sequence (P68106 whole entry, further chain) above
For data set [8], the target named is T1, RyR2. The data set can be described thus: Calstabin2 binding to RyR2 immunoprecipitated from human HD cortex lysate (immunoblot). The note with it: FIG. 1. How it is done:
Brain microsomes were prepared from human hippocampus and cortex samples taken from HD patients. Control samples were from patients that were negative in neuropathological diagnoses.
RyR2 was immunoprecipitated from Cortex lysate (+/−various concentrations of Compound 2) with an RyR2 specific antibody (2 μg) in 0.5 ml of a modified RIPA buffer (50 mM Tris-HCl pH 7.2 0.9% NaCl, 5.0 mM NaF, 1.0 mM Na3VO4, 1% Triton-X100, and protease inhibitors) and left overnight at 4° C. The immune complexes were incubated with protein A Sepharose beads at 4° C. for 1 h and the beads are washed three times with RIPA buffer. […] Immunoblots were developed using antibodies against RyR and Calstabin.
For orientation: In western blotting, separated proteins are transferred to a membrane and probed.

Where [9] appears, read: 5 mg/kg/day in drinking water, 7:00AM, 5 mg/kg/day.
The mark [10] stands for this setting: 5 mg/kg/day in drinking water, 7:00PM, 5 mg/kg/day.
Where [11] appears, read: 20 mg/kg/day in drinking water, 7:00AM, 20 mg/kg/day.
Setting [12] is: 20 mg/kg/day in drinking water, 7:00PM, 20 mg/kg/day.

As to `O=C(N1CCNCC1)N1CCSc2cccc(C(F)(F)F)c2C1` [Compound 5, piperazin-1-yl(6-(trifluoromethyl)-2,3-dihydrobenzo[f][1,4]thiazepin-4(5H)-yl)methanone], in data set [1], the inhibition at 10 µM came out at 92%.
With `COc1ccc2c(c1)CN(C)CCS2` [Compound S107, reference compound], the “Calstabin2 binding to HD microsomes, concentration dependence” value on RyR2 [2] was “increase Calstabin2 binding to HD microsomes in a concentration dependent manner”.
`O=C(N1CCNCC1)N1CCSc2ccc(OC(F)(F)F)cc2C1` [Compound 4, piperazin-1-yl(7-(trifluoromethoxy)-2,3-dihydrobenzo[f][1,4]thiazepin-4(5H)-yl)methanone]: the inhibition at 10 µM in data set [1] worked out at 142%.
Still for that read-out and setting: the result for `O=C(N1CCNCC1)N1CCSc2cccc(I)c2C1` [Compound 10, (6-iodo-2,3-dihydrobenzo[f][1,4]thiazepin-4(5H)-yl)(piperazin-1-yl)methanone] reads 74%.
Same read-out and setting: with `O=C(N1CCNCC1)N1CCSc2c(cccc2C(F)(F)F)C1` [Compound 3, piperazin-1-yl(9-(trifluoromethyl)-2,3-dihydrobenzo[f][1,4]thiazepin-4(5H)-yl)methanone] the figure was 85%; with `O=C(N1CCNCC1)N1CCSc2cccc(OC(F)(F)F)c2C1` [Compound 8, piperazin-1-yl(6-(trifluoromethoxy)-2,3-dihydrobenzo[f][1,4]thiazepin-4(5H)-yl)methanone], 80%.
Turning to `O=C(N1CCNCC1)N1CCSc2cc(C(F)(F)F)ccc2C1` [Compound 1, piperazin-1-yl(8-(trifluoromethyl)-2,3-dihydrobenzo[f][1,4]thiazepin-4(5H)-yl)methanone], the inhibition at 10 µM in [1] is 95 to 96%.
`O=C(N1CCNCC1)N1CCSc2ccc(C(F)(F)F)cc2C1` [Compound 2, piperazin-1-yl(7-(trifluoromethyl)-2,3-dihydrobenzo[f][1,4]thiazepin-4(5H)-yl) methanone]: the inhibition at 10 µM in data set [1] is 86 to 94%. Besides, the Vd in [3] (plasma, rat, IV bolus 2 mg/kg) amounted to 10.9 L/kg. Besides, in data set [3] (plasma, rat, IV bolus 2 mg/kg, read-out: T½ (converted)), the half-life is 2.77 h. Further, the AUC(0-inf) in data set [3] (rat plasma, IV bolus 2 mg/kg) is 736 ng·h/mL; in data set [5] (rat, plasma, oral, 20 mg/kg), 2730 ng·h/mL. Also, the concentration at 30 min in [3] (rat plasma, IV bolus 2 mg/kg, 30 min, read-out: C 1st time (30 min)) was 180 ng/mL. Also, in data set [3] (rat, PO 20 mg/kg vs IV bolus 2 mg/kg), the “F % PO/IV bolus” value turned out to be 37%. The concentration at 4 h in data set [4] (brain, read-out: Brain C4 h) was 2160 ng/g and 6.25 µM; in data set [4] (plasma, read-out: Plasma C4 h) it was 420 ng/mL and 1.22 µM. The Kp at 4 h in [4] (brain/plasma) came to 5.1. At RyR2 [2], the “Calstabin2 binding to HD microsomes, concentration dependence” value is reported as “increase Calstabin2 binding to HD microsomes in a concentration dependent manner”. The Cmax in data set [5] (rat, plasma, 20 mg/kg, rat plasma, PO 20 mg/kg, Table 4 summary, read-out: Cmax C4 h) was 320 ng/mL; in [5] (rat, plasma, 20 mg/kg, rat plasma, PO 20 mg/kg, read-out: Cmax), 210 ng/mL and 610 nM. Besides, in data set [5] (rat plasma, PO 20 mg/kg), the Tmax stood at 4 h. Moreover, in data set [5] (rat plasma, PO 20 mg/kg, 12 h, trapezoidal, read-out: AUCt (12 h)), the AUC(0-t) is 2090 ng·h/mL and 6.06 µM·h. The Brain was 0.50 ± 0.12 μg/g and 1.44 ± 0.36 μM in [6] (setting [9]); 0.12 ± 0.08 μg/g and 0.36 ± 0.22 μM in [6] (setting [10]); 3.05 ± 0.71 μg/g and 8.82 ± 2.05 μM in data set [6] (setting [11]); 1.20 ± 0.96 μg/g and 3.48 ± 2.79 μM in data set [6] (setting [12]). The Plasma was 0.09 ± 0.03 μg/mL and 0.25 ± 0.08 μM in data set [6] (setting [9]); 0.02 ± 0.01 μg/mL and 0.07 ± 0.02 μM in [6] (setting [10]); 0.42 ± 0.02 μg/mL and 1.22 ± 0.05 μM in data set [6] (setting [11]); 0.20 ± 0.12 μg/mL and 0.58 ± 0.36 μM in data set [6] (setting [12]). Further, in [6] (1 week in drinking water), the “brain exposure after a week of dosing” value is recorded as “has brain exposure”. Besides, the “plasma and tissue exposure levels, morning versus evening” value in [6] (1 week in drinking water) was “higher in the morning than in the evening”. For the same compound, the “calcium leak from HD microsomes” value with RyR was “decreases calcium leak from HD microsomes”. This compound also displayed a half-maximal effective concentration (EC50) at RyR2 [7] of 100 nM. At RyR2 [8], the “Calstabin2/RyR2 binding in HD brain microsome lysates” value is reported as “improves Calstabin2/RyR2 binding; also recorded: improves Calstabin rebinding to RyR2”.
Regarding `O=C(N1CCNCC1)N1CCSc2cccc(Br)c2C1` [Compound 9, (6-bromo-2,3-dihydrobenzo[f][1,4]thiazepin-4(5H)-yl)(piperazin-1-yl)methanone], in [1], the inhibition at 10 µM stood at 89%.
Same read-out and setting: the result for `O=C(N1CCNCC1)N1CCSc2cccc(Cl)c2C1` [Compound 7, (6-chloro-2,3-dihydrobenzo[f][1,4]thiazepin-4(5H)-yl)(piperazin-1-yl)methanone] reads 89%; that for `O=C(N1CCNCC1)N1CCSc2cc(F)c(F)cc2C1` [Compound 6, (7,8-difluoro-2,3-dihydrobenzo[f][1,4]thiazepin-4(5H)-yl)(piperazin-1-yl)methanone], 71%.
